# Assay results reported in US11344620B2, “Combination therapies” (Novartis AG, priority 2014, dated 2022).
# Columns and labels:
# [1] = tested on: PD-L1 (CD274) on tumor cells; test: Effects of targeted agents on PD-L1 modulation (real time PCR and flow cytometry), summary; format: cell-based, human
# Source text: This example evaluates the effects of selected therapeutic agents (e.g., INC280, MEK162, LGX818 and LDK378) on PD-L1 (CD274) modulation. Selected therapeutic agents were examined by real time PCR and flow cytometry on PD-L1 levels.
# [2] = tested on: PD-L1 (CD274) mRNA in H3122 cells; test: TaqMan RT PCR of PD-L1 mRNA in H3122 cells in vitro; format: cell-based, human; details: H3122 (NSCLC with ALK translocation) in vitro, FIG. 3
# Protocol: (§1) TaqMan RT PCR assays were developed to detect changes of expression levels of PD-L1 (CD274) in cell lines and xenograft tumors. mRNA was isolated from frozen cell pellets or tumor fragments using the Qiagen RNeasy Mini kit. Isolated RNA was frozen at −80° C. RNA quality was checked and RNA was quantified using a 2100 Agilent Bioanalyzer following the protocol for the Agilent RNA 6000 Nano Kit. cDNA was prepared using a High Capacity RNA- to cDNA Kit (Applied Biosystems).
# (§2) Real-time PCR reactions were carried out in 20 μl total volume, including 10 μl of Universal PCR master mix (Applied Biosystems), 1 μl of human PD-L1 (CD274) probe/primer set (Applied Biosystems), and 8 μl of cDNA. Each sample was run in triplicate. The amount of cDNA produced from 25-50 ng of RNA in the reverse transcription reaction was used in each PCR reaction. Due to difference in mRNA levels between PD-L1 and GAPDH, the two real-time PCR reactions were done in separate tubes using same amount of cDNA. The real-time PCR reaction was run on the C1000 Thermal Cycle (BioRad) with the cycle program as follows: a 10 minute incubation at 95° C. followed by 40 cycles of 95° C. for 15 seconds and 60° C. for 1 minute. After the reaction was complete, the PD-L1 average Ct was normalized relative to each Ct value from the GAPDH reference reaction. Each normalized logarithmic value was then converted into a linear value.
# [3] = tested on: PD-L1 (CD274) mRNA in HEYA8 tumors; test: TaqMan RT PCR of PD-L1 mRNA in HEYA8 tumor xenograft model; format: in vivo, human; details: tumor xenograft model bearing HEYA8 (KRAS mutant ovarian cancer), FIG. 5
# Protocol: as §1, §2
# [4] = tested on: PD-L1 (CD274) mRNA in LOXIMV1 tumors; test: TaqMan RT PCR of PD-L1 mRNA in LOXIMV1 tumor xenograft model; format: in vivo, human; details: tumor xenograft model bearing LOXIMV1 (BRAF mutant melanoma), FIG. 4
# Protocol: as §1, §2
# [5] = tested on: PD-L1 (CD274) surface expression in EBC-1 cells; test: Flow cytometry of PD-L1 surface expression in EBC-1 cells in vitro; format: cell-based, human; details: EBC-1 cells (NSCLC with cMET amplification), FIG. 1
# Protocol: PD-L1 (CD274) expression was analyzed in cancer cell lines treated with INC280. Cells were obtained from ATCC and cultured in vitro following ATCC directions. The cell lines used were previously characterized by the Cancer Cell Line Encyclopedia Project (http://www.broadinstitute.org/ccle/home). Cells plated in six-well culture plates were treated with the INC280 at different concentrations (10 nM, 100 nM, and 1000 nM) for 24, 48 and 72 hours. Equal amount of vehicle (DMSO) was used as a control. Cells were washed with PBS and then harvested using a cell scraper. For each reaction, 0.5-1×10^6 cells were stained with 20 μL of anti-human monoclonal PD-L1-PE antibody, clone M1H1 (BD) for 30-60 minutes at 4° C. Cells were washed twice and data was acquired using a Canto II with FACSDiva software (BD Bioscience). Data analysis was performed using FlowJo software (Tree Star). Mean fluorescence intensity (MFI) was determined by gating on single cells. Unstained cells were used as a gating control.
# [6] = tested on: PD-L1 (CD274) mRNA in Hs.746.T tumor xenograft; test: TaqMan RT PCR of PD-L1 mRNA in Hs.746.T tumor xenograft; format: in vivo, human; details: Hs.746.T tumor (gastric cancer, cMET amplification & mutation) xenograft, FIG. 2
# Protocol: as §2, with “TaqMan RT PCR assays were developed to detect changes of expression levels of PD-L1 (CD274) in cell lines and xenograft tumors. mRNA was isolated from frozen cell pellets or tumor fragments using the Qiagen RNeasy Mini kit. Isolated RNA was frozen at −80° C. RNA quality was checked and RNA was quantified using a 2100 Agilent Bioanalyzer following the protocol for the Agilent RNA 6000 Nano Kit. cDNA was prepared using a High Capacity RNA- to cDNA Kit (Applied Biosystems). Real-time” for “Real-time”
# [7] = tested on: EGFR mutant (L858R, ex19del and T790M) cancer models; details: in vitro and in vivo; cited from earlier work
# [8] = biological target: WT EGFR (Homo sapiens, UniProt P00533); details: at clinically relevant efficacious concentrations; cited from earlier work
# WT EGFR, sequence (P00533 25-1210): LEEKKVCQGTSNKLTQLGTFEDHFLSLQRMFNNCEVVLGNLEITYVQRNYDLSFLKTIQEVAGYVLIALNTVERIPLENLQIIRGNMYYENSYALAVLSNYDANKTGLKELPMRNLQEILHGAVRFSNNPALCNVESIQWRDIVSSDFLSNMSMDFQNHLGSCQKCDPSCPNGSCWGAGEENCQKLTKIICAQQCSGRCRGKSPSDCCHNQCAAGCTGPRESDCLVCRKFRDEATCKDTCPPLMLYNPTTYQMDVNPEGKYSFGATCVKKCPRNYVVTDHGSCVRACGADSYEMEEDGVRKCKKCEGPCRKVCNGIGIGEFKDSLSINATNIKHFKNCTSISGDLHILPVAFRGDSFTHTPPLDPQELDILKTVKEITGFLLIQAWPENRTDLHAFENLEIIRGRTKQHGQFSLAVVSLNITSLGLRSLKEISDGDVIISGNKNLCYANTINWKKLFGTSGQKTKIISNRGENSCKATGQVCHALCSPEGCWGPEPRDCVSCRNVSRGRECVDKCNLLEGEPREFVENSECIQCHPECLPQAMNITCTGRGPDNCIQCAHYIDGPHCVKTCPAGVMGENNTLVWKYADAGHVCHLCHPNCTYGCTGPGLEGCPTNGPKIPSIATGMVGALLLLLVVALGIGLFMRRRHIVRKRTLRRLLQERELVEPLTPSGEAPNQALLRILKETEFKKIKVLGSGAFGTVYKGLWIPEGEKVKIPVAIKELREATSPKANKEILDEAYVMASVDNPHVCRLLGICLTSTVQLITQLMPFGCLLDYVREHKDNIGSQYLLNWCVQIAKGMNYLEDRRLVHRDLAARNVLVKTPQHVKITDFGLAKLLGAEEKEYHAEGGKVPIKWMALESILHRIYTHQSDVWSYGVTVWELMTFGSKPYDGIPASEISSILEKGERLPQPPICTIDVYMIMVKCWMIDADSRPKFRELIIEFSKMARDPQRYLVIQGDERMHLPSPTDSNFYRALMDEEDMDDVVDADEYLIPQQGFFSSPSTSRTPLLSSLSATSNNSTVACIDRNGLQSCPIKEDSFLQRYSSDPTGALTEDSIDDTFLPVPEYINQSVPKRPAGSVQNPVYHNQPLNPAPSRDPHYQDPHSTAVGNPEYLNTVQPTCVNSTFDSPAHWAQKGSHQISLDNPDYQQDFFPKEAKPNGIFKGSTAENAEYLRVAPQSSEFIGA
compound,measurement,setting,value
"Cc1cc(Nc2ncc(Cl)c(Nc3ccccc3S(=O)(=O)C(C)C)n2)c(OC(C)C)cc1C1CCNCC1 [LDK378, 5-chloro-N2-(2-isopropoxy-5-methyl-4-(piperidin-4-yl)-phenyl)-N4-[2-(propane-2-sulfonyl)-phenyl]-pyrimidine-2,4-diamine, reference compound]",inhibition of PD-L1 on tumor cells,[1],Significant inhibition
same,PD-L1 mRNA,[2],Inhibition
"Cn1cnc2c(F)c(Nc3ccc(Br)cc3F)c(C(=O)NOCCO)cc21 [MEK162, 5-((4-bromo-2-fluorophenyl)amino)-4-fluoro-N-(2-hydroxyethoxy)-1-methyl-1H-benzo[d]imidazole-6-carboxamide]",inhibition of PD-L1 on tumor cells,[1],Significant inhibition
same,PD-L1 mRNA,[3],Downregulation
"COC(=O)N[C@@H](C)CNc1nccc(-c2cn(C(C)C)nc2-c2cc(Cl)cc(NS(C)(=O)=O)c2F)n1 [LGX818, methyl (S)-(1-((4-(3-(5-chloro-2-fluoro-3-(methylsulfonamido)phenyl)-1-isopropyl-1H-pyrazol-4-yl)pyrimidin-2-yl)amino)propan-2-yl)carbamate]",inhibition of PD-L1 on tumor cells,[1],Significant inhibition
same,PD-L1 mRNA,[4],Downregulation
"CNC(=O)c1ccc(-c2cnc3ncc(Cc4ccc5ncccc5c4)n3n2)cc1F [INC280, 2-fluoro-N-methyl-4-[7-(quinolin-6-ylmethyl)imidazo[1,2-b][1,2,4]triazin-2-yl]benzamide]",inhibition of PD-L1 on tumor cells,[1],Significant inhibition
same,surface expression of PD-L1,[5],significant downregulation
same,PD-L1 expression (mRNA),[6],Inhibition
"Cc1cc(C(=O)Nc2nc3cccc(Cl)c3n2[C@@H]2CCCCN(C(=O)/C=C/CN(C)C)C2)ccn1 [EGF816, (R,E)-N-(7-chloro-1-(1-(4-(dimethylamino)but-2-enoyl)azepan-3-yl)-1H-benzo[d]imidazol-2-yl)-2-methylisonicotinamide]",efficacy in EGFR mutant cancer models,[7],significant efficacy
same,WT EGFR inhibition,[8],no indication of WT EGFR inhibition
